Experimental data taken from patent US9821002B2, “Method for alleviating radiation injury with isorhamnetin-3-O-β-D-glucoside” (Sinotai Oncology Associate., Ltd., priority 2015, dated 2017).

How the values were obtained:
[1] = test system: cleaved caspase-9 in BNL CL.2 cells; assay: Expression profile of cleaved caspase-9 (Western Blotting) after X-ray irradiation; type: cell-based, mouse; details: 5 and 30 μM, 2 h pretreatment, X-ray 15 Gy, 48 hours, normalized to β-actin
Source text: (§1) Four groups of BNL CL.2 cells (i.e., a normal control group referred to as Normal Control Group 1-A, an X-ray control group referred to as X-Ray Control Group 1-A, and two experimental groups referred to as Experimental Groups 1-A to 2-A), and six groups of NMuMG cells (i.e., a normal control group referred to as Normal Control Group 1-B, an X-ray control group referred to as X-Ray Control Group 1-B, two isorhamnetin groups referred to as Isorhamnetin Groups 1 to 2, and two experimental groups referred to as Experimental Groups 1-B to 2-B), were prepared based on the procedure set forth in “Source and cultivation of cell lines” of “Experimental materials”. BNL CL.2 cells in each group were cultivated using 5 mL of a corresponding medium shown in Table 1 and a 6-cm Petri dish in an amount of 2×10^5 cells per dish. […]
(§2) Subsequently, the culture in each group was cultivated in an incubator (37° C., 5% CO2) for 48 hours, and 120 μL of lysis buffer containing CelLytic™ M protein extraction reagent (Sigma-Aldrich) and proteinase inhibitor cocktail (Sigma-Aldrich) was added to the culture in each group, followed by mixing evenly. […] Protein concentration in the total protein sample was determined by means of the Bio-Rad Protein Assay Kit. […]
(§3) Subsequently, ImageScanner Imaging Software was used for analysis, such that the corresponding protein expression level was semi-quantitatively calculated. […]

[2] = test system: cleaved caspase-9 in NMuMG cells; assay: as above; type: cell-based, mouse; details: 15 and 30 μM, 2 h pretreatment, X-ray 15 Gy, 48 hours, normalized to β-actin
Source text: as §1, §2, §3

Q: `COc1cc(-c2oc3cc(O)cc(O)c3c(=O)c2O[C@@H]2O[C@H](CO)[C@@H](O)[C@H](O)[C@H]2O)ccc1O` [isorhamnetin-3-O-β-D-glucoside] was tested. Which “expression level of cleaved caspase-9 versus X-ray control group” value [1] did it give?
A: Its value is “significant reduction in expression level of cleaved caspase-9”.

Q: What about the “expression level of cleaved caspase-9 versus X-ray control group” value [2] of the same molecule?
A: The value was “significant reduction in expression level of cleaved caspase-9”.
